How the values were obtained:
[1] = target: recombinant human ASK1 kinase (Homo sapiens (Human), UniProt Q99683); test: TR-FRET ASK1 kinase assay (HTRF KinEASE-STK); type: biochemical
Source text: Dephosphorylated recombinant human ASK1 kinase was from Gilead Sciences. […] ATP (catalogue # 7724) was from Affymetrix (Santa Clara, Calif.) and test compounds were from Gilead Sciences. HTRF KinEASE™-STK S3 kit was obtained from Cisbio (Bedford, Mass.). All other reagents were of the highest grade commercially available. The assay measures the phosphorylation level of a biotinylated peptide substrate by the ASK1 kinase using HTRF detection (6.1). This is a competitive, time-resolved fluorescence resonance energy transfer (TR-FRET) immunoassay, based on HTRF® KinEASE™-STK manual from Cisbio (6.1). […] Peptide antibody labeled with 1× Eu^3+ Cryptate buffer containing 10 mM EDTA and 125 nM Streptavidin XL665 are added to stop the reaction and phosphorylated peptide substrate is detected using Envision 2103 Multilabeled reader from PerkinElmer. The fluorescence is measured at 615 nm (Cryptate) and 665 nm (XL665) and a ratio of 665 nm/615 nm is calculated for each well. The resulting TR-FRET level (a ratio of 665 nm/615 nm) is proportional to the phosphorylation level. Under these assay conditions, the degree of phosphorylation of peptide substrate was linear with time and concentration for the enzyme. The assay system yielded consistent results with regard to Km and specific activities for the enzyme. For inhibition experiments (IC50 values), activities were performed with constant concentrations of ATP, peptide and several fixed concentrations of inhibitors. […] All enzyme activity data are reported as an average of quadruplicate determination. […] Enzyme activity is expressed as the amount of Phosphate incorporated into substrate peptide from ATP. Range is the maximum y range (no inhibitor, DMSO control) and s is a slope factor (6.2). Results

[2] = target: ASK1 (kinase active, 631-1381 of rat ASK1 cDNA) in 293/AP1-Luc cells (Rattus norvegicus, UniProt A0A8I6AEL0); test: ASK1 293 cell-based assay (Cellular EC50), AP-1:luciferase reporter; conditions: 293/AP1-Luc cells infected with adenovirus expressing ASK1, 24 hours
Description: ASK1 (Apoptosis Signal-Regulating Kinase 1) 293 cell-based assay (Cellular EC50)
The cellular potency of compounds was assayed in cells stably expressing an AP-1: luciferase reporter construct (293/AP1-Luc cells—Panomics Inc., 6519 Dumbarton Circle, Fremont, Calif.). Cells were infected with an adenovirus expressing kinase active ASK1 (631-1381 of rat ASK1 cDNA), which will activate the AP-1 transcription factor and increase the expression of luciferase. Inhibitors of ASK1 will decrease the enzyme activity of ASK1 and therefore decrease the activity of AP-1 transcription factor and the expression of luciferase.
2. Reference Materials • 1. Panomics 293/AP1-Luc stable cell-line product insert. • 2. Promega Steady-Glo Luciferase Assay System product insert. 3. Media Required 3. Complete Growth Medium, “CGM” • a. DMEM (MediaTech) • b. 10% FBS • c. 1% PSG • d. 100 ug/mL HygromycinB 4. Assay Medium, “AM” • a. DMEM (Invitrogen) • b. 25 mM HEPES • c. 1 mM Sodium Pyruvate • d. 1% PSG 4. Methods Maintenance: • 1. 293/AP1-Luc Maintain 293/Acells per vendor's instructions; harvest cells at ˜80% confluence in T150 flasks as follows: • a. Aspirate media, wash gently with ˜12 mL sterile D-PBS, aspirate. • b. Add 5 mL Trypsin-EDTA, tilt gently to coat flask, and incubate ˜5 min. at 37° C. • c. […] Aspirate media from cell pellet, add 20 to 30 mL CGM, resuspend pellet by pipeting 6×, pass through cell strainer to disperse clumps (if necessary), and count cells with hemocytometer. Assay Day 1: 2. Harvest cells as above, except resuspend cell pellet. Count cells and dilute to 1.5×10^5 cells per mL; add adenovirus such that there are 5 infectious forming units per cell. 3. Prime (20 to 30 mL) and plate cells in Greiner poly-D-Lysine coated 384-well plates at 1.2×10^4 cells per well using BioTek uFill (80 uL per well). 4. Immediately dose plates with 0.4 uL of compound dose series (in 100% DMSO) incubate 24 hours in humidified incubator (37° C., 5% CO2). Assay Day 2: 5. Process plates (per manufacturer's instructions) as follows: • a. Set plates in laminar flow hood & uncover for 30 minutes at room temperature to cool. • b. Remove 60 uL of AM from assay wells • c. Add 20 uL per well Steady-Glo Firefly substrate, let sit for 10-20 minutes at room temperature • d. Cover bottom of assay plates with white backing tape. • e. Acquire data on a […] plate reader

[3] = TR-FRET, 100 μM ATP, 4 nM ASK1 kinase, average of quadruplicate
[4] = Compounds 6-17, same competitive TR-FRET immunoassay

Sequence of recombinant human ASK1 kinase (Q99683 whole entry): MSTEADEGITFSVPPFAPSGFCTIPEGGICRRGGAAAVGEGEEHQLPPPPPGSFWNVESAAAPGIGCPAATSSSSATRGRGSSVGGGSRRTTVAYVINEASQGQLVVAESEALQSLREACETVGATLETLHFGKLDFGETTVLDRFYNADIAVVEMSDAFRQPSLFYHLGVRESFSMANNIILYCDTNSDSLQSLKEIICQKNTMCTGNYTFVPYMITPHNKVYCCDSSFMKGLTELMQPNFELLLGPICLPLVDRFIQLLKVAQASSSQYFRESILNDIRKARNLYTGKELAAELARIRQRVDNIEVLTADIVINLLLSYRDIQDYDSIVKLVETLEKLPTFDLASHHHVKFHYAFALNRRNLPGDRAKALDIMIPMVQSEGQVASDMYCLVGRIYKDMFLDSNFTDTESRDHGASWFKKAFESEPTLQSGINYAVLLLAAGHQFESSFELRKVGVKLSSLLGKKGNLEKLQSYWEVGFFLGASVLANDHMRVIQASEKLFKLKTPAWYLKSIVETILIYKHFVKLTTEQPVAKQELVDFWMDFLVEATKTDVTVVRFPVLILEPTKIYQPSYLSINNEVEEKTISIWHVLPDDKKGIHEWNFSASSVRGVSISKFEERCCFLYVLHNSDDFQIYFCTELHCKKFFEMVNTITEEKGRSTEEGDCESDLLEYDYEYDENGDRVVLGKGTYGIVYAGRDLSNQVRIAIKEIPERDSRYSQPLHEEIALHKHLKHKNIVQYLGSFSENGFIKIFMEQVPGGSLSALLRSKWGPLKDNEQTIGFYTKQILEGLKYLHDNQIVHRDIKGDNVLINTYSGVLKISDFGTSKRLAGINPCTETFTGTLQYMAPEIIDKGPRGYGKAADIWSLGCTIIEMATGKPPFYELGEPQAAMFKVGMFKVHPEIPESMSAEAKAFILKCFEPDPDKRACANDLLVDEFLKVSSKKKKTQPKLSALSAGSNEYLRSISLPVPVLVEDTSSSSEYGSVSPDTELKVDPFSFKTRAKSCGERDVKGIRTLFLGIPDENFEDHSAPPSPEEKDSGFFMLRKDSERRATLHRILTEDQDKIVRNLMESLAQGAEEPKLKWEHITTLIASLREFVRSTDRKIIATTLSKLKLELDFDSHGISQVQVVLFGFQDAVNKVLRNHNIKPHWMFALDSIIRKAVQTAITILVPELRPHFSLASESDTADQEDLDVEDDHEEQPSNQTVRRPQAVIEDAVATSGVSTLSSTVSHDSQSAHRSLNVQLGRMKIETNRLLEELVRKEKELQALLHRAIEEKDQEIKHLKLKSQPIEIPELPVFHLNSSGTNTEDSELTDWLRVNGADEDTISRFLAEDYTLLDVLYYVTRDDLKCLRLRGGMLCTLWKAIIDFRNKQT
Sequence of ASK1 (kinase active, 631-1381 of rat ASK1 cDNA) in 293/AP1-Luc cells (A0A8I6AEL0 1-1381): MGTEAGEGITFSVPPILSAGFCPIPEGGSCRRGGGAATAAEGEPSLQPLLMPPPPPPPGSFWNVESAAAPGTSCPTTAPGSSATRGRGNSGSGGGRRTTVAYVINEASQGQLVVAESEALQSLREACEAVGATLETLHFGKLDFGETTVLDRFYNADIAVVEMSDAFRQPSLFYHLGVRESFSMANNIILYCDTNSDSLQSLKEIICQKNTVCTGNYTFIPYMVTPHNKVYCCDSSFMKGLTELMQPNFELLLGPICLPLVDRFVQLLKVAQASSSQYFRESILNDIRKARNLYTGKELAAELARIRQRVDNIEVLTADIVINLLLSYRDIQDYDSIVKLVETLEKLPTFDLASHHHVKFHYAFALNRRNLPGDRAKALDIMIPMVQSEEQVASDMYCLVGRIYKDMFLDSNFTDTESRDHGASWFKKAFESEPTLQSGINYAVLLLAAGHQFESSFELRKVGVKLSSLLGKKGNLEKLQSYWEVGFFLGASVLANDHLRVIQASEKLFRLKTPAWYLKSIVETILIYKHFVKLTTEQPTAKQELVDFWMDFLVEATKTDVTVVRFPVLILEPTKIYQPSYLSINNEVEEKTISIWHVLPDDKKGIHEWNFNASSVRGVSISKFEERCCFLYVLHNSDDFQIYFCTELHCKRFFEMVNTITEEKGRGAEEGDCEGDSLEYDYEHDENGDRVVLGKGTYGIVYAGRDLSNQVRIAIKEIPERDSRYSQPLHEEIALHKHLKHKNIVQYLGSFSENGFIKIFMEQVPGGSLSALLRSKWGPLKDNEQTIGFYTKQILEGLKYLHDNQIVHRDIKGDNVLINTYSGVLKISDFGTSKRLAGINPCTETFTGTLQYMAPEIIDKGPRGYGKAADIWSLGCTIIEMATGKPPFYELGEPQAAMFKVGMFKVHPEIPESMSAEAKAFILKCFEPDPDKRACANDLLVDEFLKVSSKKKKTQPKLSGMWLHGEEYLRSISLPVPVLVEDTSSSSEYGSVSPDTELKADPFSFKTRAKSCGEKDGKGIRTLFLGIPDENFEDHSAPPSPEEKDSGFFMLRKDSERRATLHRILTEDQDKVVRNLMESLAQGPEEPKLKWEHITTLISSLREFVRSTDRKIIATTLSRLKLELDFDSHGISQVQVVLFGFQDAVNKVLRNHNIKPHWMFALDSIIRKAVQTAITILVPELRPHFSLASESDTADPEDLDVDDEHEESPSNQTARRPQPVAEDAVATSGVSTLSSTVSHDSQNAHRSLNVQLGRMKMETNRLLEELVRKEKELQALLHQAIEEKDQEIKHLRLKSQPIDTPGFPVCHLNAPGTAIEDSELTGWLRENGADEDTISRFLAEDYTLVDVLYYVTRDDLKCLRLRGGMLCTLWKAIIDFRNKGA

Row | SMILES | IC50 [1, 3] [nM] | EC50 [2] [nM] | IC50 [1, 4] [nM]
1 | O=C(Nc1csc(-c2nncn2C2CC2)n1)c1cc(-n2cnc(C3CC3)c2)c(N2CCOCC2)cn1 [Example 1, 4-(4-cyclopropyl-1H-imidazol-1-yl)-N-(2-(4-cyclopropyl-4H-1,2,4-triazol-3-yl)thiazol-4-yl)-5-morpholinopicolinamide] | 1.44 | 13.2 | –
2 | CC1(O)CN(c2cnc(C(=O)Nc3csc(-c4nncn4C4CC4)n3)cc2-n2cnc(C3CC3)c2)C1 [Example 2, 4-(4-cyclopropyl-1H-imidazol-1-yl)-N-(2-(4-cyclopropyl-4H-1,2,4-triazol-3-yl)thiazol-4-yl)-5-(3-hydroxy-3-methylazetidin-1-yl)picolinamide] | 1.58 | 11.2 | –
3 | C[C@H](n1cnnc1-c1nc(NC(=O)c2cc(-n3cnc(C4CC4)c3)c(N(C)C)cn2)cs1)C(F)(F)F [Example 5, (S)-4-(4-cyclopropyl-1H-imidazol-1-yl)-5-(dimethylamino)-N-(2-(4-(1,1,1-trifluoropropan-2-yl)-4H-1,2,4-triazol-3-yl)thiazol-4-yl)picolinamide] | 1.88 | 7.12 | –
4 | C[C@H](n1cnnc1-c1nc(NC(=O)c2cc(-n3cnc(C4CC4)c3)c(N3CCC3)cn2)cs1)C(F)(F)F [Example 7, (S)-5-(azetidin-1-yl)-4-(4-cyclopropyl-1H-imidazol-1-yl)-N-(2-(4-(1,1,1-trifluoropropan-2-yl)-4H-1,2,4-triazol-3-yl)thiazol-4-yl)picolinamide] | – | – | 1.7
5 | C[C@H](n1cnnc1-c1nc(NC(=O)c2cc(-n3cnc(C4CC4)c3)c(N3CCCC3)cn2)cs1)C(F)(F)F [Example 8, (S)-4-(4-cyclopropyl-1H-imidazol-1-yl)-5-(pyrrolidin-1-yl)-N-(2-(4-(1,1,1-trifluoropropan-2-yl)-4H-1,2,4-triazol-3-yl)thiazol-4-yl)picolinamide] | – | – | 2.2
6 | O=C(Nc1csc(-c2nncn2C2CC2)n1)c1cc(-n2cnc(C3CC3)c2)c(N2CCCC2)cn1 [Example 9, 4-(4-cyclopropylimidazol-1-yl)-N-[2-(4-cyclopropyl-1,2,4-triazol-3-yl)-1,3-thiazol-4-yl]-5-pyrrolidin-1-ylpyridine-2-carboxamide] | – | – | 1.9
7 | C[C@H](n1cnnc1-c1nc(NC(=O)c2cc(-n3cnc(C4CC4)c3)c(N3CCC(O)C3)cn2)cs1)C(F)(F)F (stereo partly drawn) [Example 11, 4-(4-cyclopropyl-1H-imidazol-1-yl)-5-(3-hydroxypyrrolidin-1-yl)-N-(2-(4-((S)-1,1,1-trifluoropropan-2-yl)-4H-1,2,4-triazol-3-yl)thiazol-4-yl)picolinamide] | – | – | 2.2
8 | O=C(Nc1csc(-c2nncn2C2CC2)n1)c1cc(-n2cnc(C3CC3)c2)c(N2CCCCC2)cn1 [Example 12, 4-(4-cyclopropylimidazol-1-yl)-N-[2-(4-cyclopropyl-1,2,4-triazol-3-yl)-1,3-thiazol-4-yl]-5-piperidin-1-ylpyridine-2-carboxamide] | – | – | 2
9 | C[C@H](n1cnnc1-c1nc(NC(=O)c2cc(-n3cnc(C4CC4)c3)c(N3CCC(C)(O)CC3)cn2)cs1)C(F)(F)F [Example 14, (S)-4-(4-cyclopropyl-1H-imidazol-1-yl)-5-(4-hydroxy-4-methylpiperidin-1-yl)-N-(2-(4-(1,1,1-trifluoropropan-2-yl)-4H-1,2,4-triazol-3-yl)thiazol-4-yl)picolinamide] | – | – | 1.8

Now from value to molecule:

Row | IC50 [1, 3] [nM] | EC50 [2] [nM] | IC50 [1, 4] [nM] | SMILES
10 | 2.62 | 6.74 | – | C[C@H](n1cnnc1-c1nc(NC(=O)c2cc(-n3cnc(C4CC4)c3)c(N3CCOCC3)cn2)cs1)C(F)(F)F [Example 3, (S)-4-(4-cyclopropyl-1H-imidazol-1-yl)-5-morpholino-N-(2-(4-(1,1,1-trifluoropropan-2-yl)-4H-1,2,4-triazol-3-yl)thiazol-4-yl)picolinamide]
11 | 1.69 | 5.21 | – | C[C@H](n1cnnc1-c1nc(NC(=O)c2cc(-n3cnc(C4CC4)c3)c(N3CC(C)(O)C3)cn2)cs1)C(F)(F)F [Example 4, (S)-4-(4-cyclopropyl-1H-imidazol-1-yl)-5-(3-hydroxy-3-methylazetidin-1-yl)-N-(2-(4-(1,1,1-trifluoropropan-2-yl)-4H-1,2,4-triazol-3-yl)thiazol-4-yl)picolinamide]
12 | – | – | 2.4 | O=C(Nc1csc(-c2nncn2C2CC2)n1)c1cc(-n2cnc(C3CC3)c2)c(N2CCC2)cn1 [Example 6, 5-(azetidin-1-yl)-4-(4-cyclopropylimidazol-1-yl)-N-[2-(4-cyclopropyl-1,2,4-triazol-3-yl)-1,3-thiazol-4-yl]pyridine-2-carboxamide]
13 | – | – | 3 | O=C(Nc1csc(-c2nncn2C2CC2)n1)c1cc(-n2cnc(C3CC3)c2)c(N2CCC(O)C2)cn1 (stereo not shown) [Example 10, 4-(4-cyclopropylimidazol-1-yl)-N-[2-(4-cyclopropyl-1,2,4-triazol-3-yl)-1,3-thiazol-4-yl]-5-(3-hydroxypyrrolidin-1-yl)pyridine-2-carboxamide]
14 | – | – | 0.7 | C[C@H](n1cnnc1-c1nc(NC(=O)c2cc(-n3cnc(C4CC4)c3)c(N3CCCCC3)cn2)cs1)C(F)(F)F [Example 13, (S)-4-(4-cyclopropyl-1H-imidazol-1-yl)-5-(piperidin-1-yl)-N-(2-(4-(1,1,1-trifluoropropan-2-yl)-4H-1,2,4-triazol-3-yl)thiazol-4-yl)picolinamide]
15 | – | – | 2.5 | CC1(O)CCN(c2cnc(C(=O)Nc3csc(-c4nncn4C4CC4)n3)cc2-n2cnc(C3CC3)c2)CC1 [Example 15, 4-(4-cyclopropylimidazol-1-yl)-N-[2-(4-cyclopropyl-1,2,4-triazol-3-yl)-1,3-thiazol-4-yl]-5-(4-hydroxy-4-methylpiperidin-1-yl)pyridine-2-carboxamide]
16 | – | – | 2.1 | C[C@H](n1cnnc1-c1nc(NC(=O)c2cc(-n3cnc(C4CC4)c3)c(N3CCN(C)CC3)cn2)cs1)C(F)(F)F [Example 16, (S)-4-(4-cyclopropyl-1H-imidazol-1-yl)-5-(4-methylpiperazin-1-yl)-N-(2-(4-(1,1,1-trifluoropropan-2-yl)-4H-1,2,4-triazol-3-yl)thiazol-4-yl)picolinamide]
17 | – | – | 3.1 | CN1CCN(c2cnc(C(=O)Nc3csc(-c4nncn4C4CC4)n3)cc2-n2cnc(C3CC3)c2)CC1 [Example 17, 4-(4-cyclopropylimidazol-1-yl)-N-[2-(4-cyclopropyl-1,2,4-triazol-3-yl)-1,3-thiazol-4-yl]-5-(4-methylpiperazin-1-yl)pyridine-2-carboxamide]
